Measured values published in patent US20210395313A1, “PEPTIDE PAC1 ANTAGONISTS” (AMGEN INC., priority 2017, published 2021).
Bridges are numbered along the chain shown (N, C = ends). Where no end group is shown, it is not given here.

Legend:
[1] = molecular target: T1, human PAC1 receptor (Homo sapiens, UniProt P41586); assay: LANCE Ultra cAMP accumulation antagonist assay in SHSY-5Y cells; format: cell-based;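 further: inhibition of cAMP accumulation evoked by PAC1 agonist at its EC80 in SHSY-5Y cells endogenously expressing receptor, 30 min preincubation then 15 min agonist, TR-FRET readout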
T1 construct: SHSY-5Y (human neuroblastoma cell line) and RG-2 (rat glioma cell line) cells endogenously express human and rat PAC1 receptors, respectively; endogenous in cells; host or cells: SHSY-5Y human neuroblastoma cells
T1 sequence (P41586 21-468): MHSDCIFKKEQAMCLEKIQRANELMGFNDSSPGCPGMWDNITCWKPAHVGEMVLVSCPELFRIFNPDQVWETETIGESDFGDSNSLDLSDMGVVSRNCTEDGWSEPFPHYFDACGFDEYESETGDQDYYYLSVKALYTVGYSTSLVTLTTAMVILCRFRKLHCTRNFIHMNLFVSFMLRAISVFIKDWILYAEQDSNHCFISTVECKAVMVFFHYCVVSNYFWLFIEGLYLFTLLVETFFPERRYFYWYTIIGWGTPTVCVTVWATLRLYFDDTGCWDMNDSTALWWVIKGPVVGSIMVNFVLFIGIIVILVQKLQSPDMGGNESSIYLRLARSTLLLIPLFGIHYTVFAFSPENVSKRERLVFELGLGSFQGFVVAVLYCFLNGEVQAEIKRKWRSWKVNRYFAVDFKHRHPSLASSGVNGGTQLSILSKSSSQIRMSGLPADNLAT

[2] = molecular target: T2, rat PAC1 receptor (Rattus norvegicus, UniProt P32215); assay: LANCE Ultra cAMP accumulation antagonist assay in RG-2 cells; format: cell-based;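 further: RG-2 rat glioma cells endogenously expressing PAC1, test peptide preincubated 30 min, then PAC1 agonist added at its EC80 for 15 min, cAMP accumulation read by LANCE Ultra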
T2 construct: SHSY-5Y (human neuroblastoma cell line) and RG-2 (rat glioma cell line) cells endogenously express human and rat PAC1 receptors, respectively; endogenous in cells; host or cells: RG-2 rat glioma cells
T2 sequence (P32215 20-523): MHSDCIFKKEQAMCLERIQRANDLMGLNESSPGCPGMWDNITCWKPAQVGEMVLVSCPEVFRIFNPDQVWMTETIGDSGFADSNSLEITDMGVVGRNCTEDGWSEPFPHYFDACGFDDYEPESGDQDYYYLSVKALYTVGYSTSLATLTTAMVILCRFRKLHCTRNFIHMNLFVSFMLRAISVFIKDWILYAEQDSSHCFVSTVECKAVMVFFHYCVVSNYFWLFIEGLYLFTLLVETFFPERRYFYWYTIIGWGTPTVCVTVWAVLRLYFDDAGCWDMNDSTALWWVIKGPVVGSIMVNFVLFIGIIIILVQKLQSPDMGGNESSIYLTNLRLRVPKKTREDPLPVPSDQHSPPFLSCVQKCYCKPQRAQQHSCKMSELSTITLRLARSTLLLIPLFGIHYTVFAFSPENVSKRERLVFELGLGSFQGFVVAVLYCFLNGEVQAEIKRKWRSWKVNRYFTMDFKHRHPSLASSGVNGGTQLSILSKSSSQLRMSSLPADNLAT

[3] = rat plasma, 37° C., 0 h (baseline)
Procedure: (§1) To model degradation in blood, PAC1 peptides of the present application were incubated in vitro with rat plasma. The stability analysis was conducted in a manner similar to as previously described by Souverain et al. (J. of Pharmaceutical and Biomedical Analysis, 35 (2004) 913-920).
(§2) Briefly, PAC1 peptides were spiked into rat plasma and incubated at 37° C. for up to 6 hours. Employing the reverse stability technique for various time points, plasma samples were quenched by the addition of perchloric acid in water containing internal standard (IS) and vortexed undergoing protein precipitation extraction (PPE). Following the vortex mix, samples were centrifuged and the supernatant containing PAC1 peptide and IS was subsequently analyzed using a liquid chromatography mass-spectrometry (LC-MS) system (Sciex® API 5500). The peak area ratio of intact PAC1 peptide to IS was determined for each time point. Peptide stability was reported as a percentage of the peak area ratio at each time point relative to the peak are ratio of a baseline sample (pre-incubation).

[4] = in vitro; details: rat, plasma
Procedure: as §1, §2

[5] = molecular target: T3, PAC1 (Rattus norvegicus, UniProt P32215); assay: Rat maxadilan-induced increase in blood flow (MIIBF) PD model, laser Doppler imaging; format: in vivo; details: for inhibition of maxadilan-induced increase in DBF: single bolus s.c., lowest dose of 0.3 mg/kg, 15 min prior to maxadilan, 45 min post peptide treatment; for inhibition of MIIBF (dermal blood flow): single bolus i.v., lowest dose of 0.1 mg/kg, 5 min prior to maxadilan, 35 min post peptide treatment
T3 construct: Naive male Sprague Dawley® rats aged 8-12 weeks at the time of the study were purchased from Charles River Laboratories; tissue Charles River Laboratories; host or cells: live male Sprague Dawley rats; dermal blood flow on abdominal skin
T3 sequence (P32215 20-523): T2 sequence (P32215 20-523)
Procedure: PAC1 peptide antagonists were also evaluated in an in vivo pharmacodynamic model—a model of maxadilan-induced increase in blood flow.
Naive male Sprague Dawley® rats aged 8-12 weeks at the time of the study were purchased from Charles River Laboratories. Animals were group-housed in non-sterile, ventilated micro-isolator housing in Amgen Assessment and Accreditation of Laboratory Animal Committee (AAALAC)-accredited facility. Animals had ad libitum access to pelleted feed (Harlan Teklad 2020X, Indianapolis, IN) and water (on-site generated reverse osmosis) via automatic watering system.
All PAC1 peptides were tested in a rat maxadilan-induced increase in blood flow (MIIBF) pharmacodynamic (PD) model with a laser Doppler imaging. A dosing solution of maxadilan (Bachem, H6734.0500) was prepared fresh daily by diluted maxadilan stock solution (0.5 mg/mL) in 1× PBS to the final concentration of 0.5 μg/mL. All tested peptides were prepared in 1× PBS at different concentrations depend on the dose required for the experiment and given in a single bolus i.v. or s.c. injection. A laser Doppler imager (LDI-2, Moor Instruments, Ltd, Wilmington, Del.) was used to measure dermal blood flow (DBF) on the shaved skin of the rat abdomen with a low-power laser beam generated by a 633 nm helium-neon bulb. The measurement resolution was 0.2 to 2 mm, with scanning distances between the instrument aperture and the tissue surface of 30 cm. In this report, DBF was measured and expressed as % change from baseline [100×(individual post-CAP flux-individual baseline flux)/individual baseline flux] and further calculated to % Inhibition to quantify the magnitude of drug effect [Mean of vehicle % change from BL−individual drug treated rat % change from BL)/Mean of vehicle % change from BL].
On the test day, following anesthetization with propofol, the rat's abdominal area was shaved and each animal was placed in a supine position on a temperature-controlled circulating warm-water pad to maintain a stable body temperature during the study. After a 10 to 15 minute stabilization period, a rubber O-ring (0.925 cm inner diameter, O-Rings West, Seattle, Wash.) was placed on the rat abdomen without directly positioning it over a visible blood vessel while the rat placed in a supine position on a temperature-controlled circulating warm-water pad to maintain a stable body temperature during the study. After placement of an O-ring on the selected area, a baseline (BL) DBF measurement was taken. After the BL scan, PAC1 peptides were administrated either 5 min for i.v., or 15 min for s.c. then followed by 20 μL (in 0.5 μg/mL) intradermal injection of maxadilan at the center of the O-ring. The post-maxadilan DBF was measured at 30 min and the post peptides time was 35 min for i.v. and 45 min for s.c. respectively. The O-ring serves as an area of interest in which the DBF will be analyzed within the O-ring.
All DBF results were expressed as the mean±SEM. A one-way ANOVA followed by Dunnett's Multiple Comparison Test (MCT) was used to assess the statistical significance of PAC1 peptides effects relative to the vehicle within the study. A p<0.05 was used to determine significance between any two groups.

[6] = molecular target: T4, rat PAC1 receptor (rat, UniProt P32215 20-523); assay: cell-based or functional assay
T4 sequence: T2 sequence (P32215 20-523)
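Wherever % Intact Peptide Remaining is given: peptides incubated in vitro in rat plasma at 37 °C up to 6 h, intact peptide quantified by LC-MS versus internal standard, expressed relative to pre-incubation baseline (100%).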

Molecule | IC50 [1] [nM] | IC50 [2] [nM] | % Intact Peptide Remaining [3] [%] | remaining at 0.5 h [4] [%] | remaining at 1 h [4] [%] | remaining at 2 h [4] [%] | remaining at 4 h [4] [%] | remaining at 6 h [4] [%] | inhibition of maxadilan-induced increase in DBF [5] | inhibition of MIIBF (dermal blood flow) [5] | rPAC1 IC50 with maxadilan challenge (cAMP assay, RG-2 cells); 100 nM > B ≥ 1 nM [6] [nM]
CDATCQFRKAIDDCARQAHHSNVPGSVFKACMKQKKKEWKAGH (disulfide 1-5, 14-31) [SEQ ID NO 151] | 0.01 to 1 | 0.01 to 1 | 100 | 120 | 87 | 104 | 112 | 107 |  |  | 
CDATCQFRKAIDDCHLLAWHANVPGSVFKACMKQKKKEFKAG-NH2 (disulfide 1-5, 14-31) [SEQ ID NO 140] |  |  | 100 | 101 | 91.4 | 93.4 | 107 | 108 |  |  | 
CDATCQFRKAIDDCYYYAMHSNVPGSVWKACMKQKKKEFKAG-NH2 (disulfide 1-5, 14-31) [SEQ ID NO 150] |  |  | 100 | 117 | 89.7 | 92.1 | 90.2 | 92.8 |  |  | 
CDATCQFRKAIDDCQKQAHHSNVPGSVFKACMKQKKKEFKAGY (disulfide 1-5, 14-31) [SEQ ID NO 164] |  |  | 100 | 94.3 | 113 | 108 | 106 | 96.5 |  |  | 
CDATCQFRKAIDDCYYRSWHSNVPGSVFKACMKQKKKEWKAG-NH2 (disulfide 1-5, 14-31) [SEQ ID NO 77] | 0.01 to 1 | 0.01 to 1 | 100 | 97.9 | 106 | 104 | 89.6 | 110 | statistically significant inhibition |  | 
CC[C@H](C)[C@H](NC(=O)[C@H](C)NC(=O)[C@H](CCCCN)NC(=O)[C@H](CCCNC(=N)N)NC(=O)[C@H](Cc1ccccc1)NC(=O)[C@H](CCC(N)=O)NC(=O)[C@@H]1CSSC[C@H](N)C(=O)N[C@@H](CC(=O)O)C(=O)N[C@@H](C)C(=O)N[C@@H]([C@@H](C)O)C(=O)N1)C(=O)N[C@@H](CC(=O)O)C(=O)N[C@@H](CC(=O)O)C(=O)N[C@H]1CSSC[C@@H](C(=O)N[C@@H](CCSC)C(=O)N[C@@H](CCCCN)C(=O)N[C@@H](CCC(N)=O)C(=O)N[C@@H](CCCCN)C(=O)N[C@@H](CCCCN)C(=O)N[C@@H](CCCCN)C(=O)N[C@@H](CCC(=O)O)C(=O)N[C@@H](Cc2ccccc2)C(=O)N[C@@H](CCCCN)C(=O)N[C@@H](C)C(=O)NCC(N)=O)NC(=O)[C@H](C)NC(=O)[C@H](CCCCN)NC(=O)[C@H](Cc2ccccc2)NC(=O)[C@H](C(C)C)NC(=O)[C@H](CO)NC(=O)CNC(=O)[C@@H]2CCCN2C(=O)[C@H](C(C)C)NC(=O)[C@H](CC(N)=O)NC(=O)[C@H](CO)NC(=O)[C@H](Cc2c[nH]cn2)NC(=O)[C@H](Cc2c[nH]cn2)NC(=O)[C@H](C)NC(=O)[C@H](CCC(N)=O)NC(=O)[C@H](CCCCN)NC(=O)[C@H](CCC(N)=O)NC1=O [SEQ ID NO 233] | 1 to 100 | 0.01 to 1 |  |  |  |  |  |  |  | statistically significant inhibition | 
CC[C@H](C)[C@H](NC(=O)[C@H](C)NC(=O)[C@H](CCCCN)NC(=O)[C@H](CCCNC(=N)N)NC(=O)[C@H](Cc1ccccc1)NC(=O)[C@H](CCC(N)=O)NC(=O)[C@@H]1CSSC[C@H](N)C(=O)N[C@@H](CC(=O)O)C(=O)N[C@@H](C)C(=O)N[C@@H]([C@@H](C)O)C(=O)N1)C(=O)N[C@@H](CC(=O)O)C(=O)N[C@@H](CC(=O)O)C(=O)N[C@H]1CSSC[C@@H](C(=O)N[C@@H](CCSC)C(=O)N[C@@H](CCCCN)C(=O)N[C@@H](CCC(N)=O)C(=O)N[C@@H](CCCCN)C(=O)N[C@@H](CCCCN)C(=O)N[C@@H](CCCCN)C(=O)N[C@@H](CCC(=O)O)C(=O)N[C@@H](Cc2ccccc2)C(=O)N[C@@H](CCCCN)C(=O)N[C@@H](C)C(=O)NCC(N)=O)NC(=O)C(C)(C)NC(=O)[C@H](CCCCN)NC(=O)[C@H](Cc2ccccc2)NC(=O)[C@H](C(C)C)NC(=O)[C@H](CO)NC(=O)CNC(=O)[C@@H]2CCCN2C(=O)[C@H](C(C)C)NC(=O)[C@H](CC(N)=O)NC(=O)[C@H](CO)NC(=O)[C@H](Cc2c[nH]cn2)NC(=O)[C@H](Cc2c[nH]cn2)NC(=O)[C@H](C)NC(=O)[C@H](CCC(N)=O)NC(=O)[C@H](CCCCN)NC(=O)[C@H](CCC(N)=O)NC1=O [SEQ ID NO 283] | 1 to 100 | 0.01 to 1 | 100 | 87.5 | 112 | 101 | 115 | 98.9 |  | statistically significant inhibition | 
CDATCQFRKAIDDCLLRAWHSNVPGSVFKACMKQKKKEFKAG-NH2 (disulfide 1-5, 14-31) [SEQ ID NO 85] | 0.01 to 1 | 0.01 to 1 |  |  |  |  |  |  | statistically significant inhibition |  | 
GCDATCQFRKAIDDCVRQAHHSNVPGSVFKACMKQKKKEWKAGH (disulfide 2-6, 15-32) [SEQ ID NO 88] | 0.01 to 1 | 0.01 to 1 | 100 | 81.4 | 90.8 | 84 | 110 | 100 |  |  | 
CDATCQFRKAIDDCARQAYHSACMKQKKKEWKAGH (disulfide 1-5, 14-23) [SEQ ID NO 449] |  |  |  |  |  |  |  |  |  |  | < 100
CDATCQFRKAIDDCARQAYHSFKACMKQKKKEWKAH (disulfide 1-5, 14-25) [SEQ ID NO 451] |  |  |  |  |  |  |  |  |  |  | < 100
CDATCQFRKAIDDCARQAYHSFKACMKQKKKEWKH (disulfide 1-5, 14-25) [SEQ ID NO 450] |  |  |  |  |  |  |  |  |  |  | < 100
